Source: paper PMC4593031, “Azobenzene Modified Imidacloprid Derivatives as Photoswitchable Insecticides: Steering Molecular Activity in a Controllable Manner” (Scientific Reports, 2015)
Several values for one entry are separate records, joined by “and”; a condition that tells them apart may be missing. Identical values can stand only once. Like-named read-outs stand apart in the source and are kept apart here.

Tests used:
[1] = UV/Vis absorption of photoisomers; assay type: physicochemical; settings: for λmax n-π* (cis): cis isomer; for λmax π-π* (trans): trans isomer
Source text: The photoswitchable behaviors of AMIs at room temperature were characterized by UV/Vis absorption, NMR spectroscopy and HPLC studies. […] Upon irradiation with ultraviolet (365 nm), a gradual intensity decrease at 327 nm and increase at 410–500 nm was detected corresponding to the π–π* and n–π* transition band, respectively (Fig. 3B). The reverse spectral changes were observed upon irradiation at 436 nm (data not shown). All the other compounds gave the similar spectral changes when illuminated with light. The proportions of E/Z isomer at the photostationary states before and after irradiation were determined by HPLC analysis (Table 1). Most of the compounds could produced more than 80% cis isomers upon irradiation. […] The photoisomerization of AMI-10 was further identified by ^1H NMR spectroscopy with the notable appearance of two double peaks at δ 7.25 and 6.85, respectively (Supplementary Fig. S1 online).
Varian Cary 100 UV-vis spectrophotometer was used for obtaining absorption (UV-Vis) spectra. The solutions of compounds were irradiated with a UV lamp (365 nm). The cis to trans photoisomeriation were performed with a light-emitting diode (blue light, 450 nm). The corresponding UV-Vis spectrums were collected in supplmentary files. The photostationary states were determined by high performance liquid chromatography (HPLC) measurements and the trans/cis ratios were calculated at the isosbestic points.

[2] = test system: house fly (Musca domestica); test: Insecticidal test for house fly by intrathoracic injection; assay type: in vivo; settings: for Musca domestica in vivo LD50: intrathoracic injection, mortality at 24 h
Experimental: The ability of azobenzene to regulate insecticidal activities remains unexplored. To better understand the activity changes induced by light, the efficacy before and after irradiation was tested by leaf-dip method for cowpea aphid (Aphis craccivora) and intrathoracic injection against house fly (Musca domestica)[46][47]. Against cowpea aphid, all the isomers had low activity and no significant difference was observed between two photo isomers (Supplementary Table S1 online). We attribute this observation to the poor solubility at the testing concentrations.
Thus, injection of chemicals into house fly was employed to evaluate their intrinsic activity (Table 2). House fly is a most commonly used indicator for both in vitro and in vivo insecticidal activity. Replacement of chloropyridinyl in IMI with AB leads to a deleterious effect on in vivo activity to house fly as exemplified by analogues AMI-1, 2 and 5 with LD50 values of more than 10 μg/g irrespective of irradiation or not. […] No obvious difference was observed between the trans and cis form of AMI-9.
House fly adults were anesthetized with carbon dioxide for 10 min and then were treated with the AMIs dissolved in distilled water or 10% DMSO aqueous solution by intrathoracic injection (0.4 μL for each fly). Twenty flies were treated for each dosage with duplicate samples. The mortality rates were counted twenty-four hours after treatment. Each treatment had three repetitions and the data subjected to probit analysis.

house fly brain nAChR = test: nAChR binding in vitro, competitive inhibition of [3H]NMI binding; settings: 1 nM [3H]NMI, house fly head membranes, read-out: Musca domestica in vitro IC50, [3H]NMI
Experimental: Tritium labeled nitromethylene analogue of IMI ([^3H]NMI) is a unique reporter for monitoring nAChR binding not only in vitro but also in vivo due to its extremely high binding potency. Here, the in vitro interaction of AMIs with house fly brain nAChR was measured by competitive inhibition of [^3H]NMI binding (Table 2). Photoisomers of AMI-1, 2, 5, and 6 had very poor ability to displacing [^3H]NMI binding (IC50 > 2000 nM) leading to difficulty for difference judgement. […] A 4-fold difference was achieved on AMI-4 and 10 upon photoirradiation. Compounds AMI-9 or AMI-10 have some similarities with the bis-IMI derivatives disclosed by Kagabu et al.[49][50][51]. […] Among various spacers investigated, the heptamethylene or furan-2,5-dimethylene was the optimal bridge. The N-PhN=NPh-N lengths for trans and cis isomers of AMI-9 or AMI-10 are about 12.29 Ǻ and 6.82 Ǻ or 12.59 Ǻ and 8.14 Ǻ, respectively. While for the bis-IMI linked by heptamethylene, the distance is 9.96 Ǻ, close to that of cis-AMI-10. The shorter or longer distance of the linker may decrease the activity. Furthermore, the lack of heteroatom in the AB linker which is important for stabilizing the interaction with the receptor further attenuated the activity.
House fly heads were collected after the fly adults frozen with liquid nitrogen were broken into body parts. Then the heads were homogenized in 0.1 mM EDTA, 0.32 M sucrose and 100 mM sodium phosphate (pH 7.4). The homogenate was treated by filtering through four layers of 64-μm mesh nylon screen. After centrifuging at 500 g for 30 min, the supernatant was collected and again filtered through using the method above. After centrifuging at 25,000 g for 60 min at 4 °C, the pellet was resuspended in binding buffer (mixture of 50 mM sodium chloride and 10 mM sodium phosphate, pH 7.4). These brain membranes were used fresh or stored for up to several weeks at −80 °C. Then 1 nM [^3H]NMI, varying concentrations of neonicotinoids and 300–500 μg membrane protein in a final volume of 500 μL was incubated at 22 °C for 60 min. The reaction mixture was filtered through Whatman GF/B glass-fiber filters prewetted by binding buffer using a Brandel M-24R Harvester (Gaithersburg, MD) to quantitate the bound [^3H]NMI, followed by two rinses each with binding buffer (5 mL) and final liquid scintillation. Nonspecific binding was determined with unlabeled NMI (20 μM). Specific binding was about 80–90% of total binding. The percentage inhibition was determined from two (compounds AMI-1, AMI-2, AMI-5, AMI-6 and azobenzene whose activities were extremely low) or three separate experiments each with triplicate samples. Half maximal inhibitory concentration (IC50) were determined by nonlinear regression analysis for logarithm of inhibitor concentration versus probit percentage inhibition.

[3] = Photoswitching cycles / constant irradiation (fatigue resistance); assay type: physicochemical; settings: multiple cycles of photoisomerization or constant irradiation at 365 nm for 1 h

2-chloro-5-(((E)-2-(nitromethylene)-3-(2-((E)-phenyldiazenyl)benzyl)imidazolidin-1-yl)methyl)pyridine [AMI-6]
λmax n-π* (cis) [1]: 433 nm | λmax π-π* (trans) [1]: 322 nm | Musca domestica in vivo LD50 ([2]; irradiated): >10 µg/g | Musca domestica in vivo LD50 ([2]; nonirradiated): >10 µg/g | IC50 (house fly brain nAChR; irradiated): > 2 µM | IC50 (house fly brain nAChR; nonirradiated): > 2 µM

O=[N+]([O-])/N=C1\N(Cc2ccc(Cl)nc2)CCN1Cc1cccc(/N=N/c2ccccc2)c1 [AMI-3]
λmax n-π* (cis) [1]: 431 nm | λmax π-π* (trans) [1]: 317 nm | Musca domestica in vivo LD50 ([2]; irradiated): 4.4 ± 0.7 µg/g | Musca domestica in vivo LD50 ([2]; nonirradiated): 3.9 ± 0.5 µg/g | IC50 (house fly brain nAChR; irradiated): 1.14 ± 0.106 µM | IC50 (house fly brain nAChR; nonirradiated): 0.25 ± 0.022 µM

O=[N+]([O-])/N=C1/N(Cc2ccc(/N=N/c3ccccc3)cc2)CCN1Cc1ccc(Cl)nc1 [AMI-4]
λmax n-π* (cis) [1]: 433 nm | λmax π-π* (trans) [1]: 322 nm | Musca domestica in vivo LD50 ([2]; irradiated): 9.2 ± 1.6 µg/g | Musca domestica in vivo LD50 ([2]; nonirradiated): 6.5 ± 1.0 µg/g | IC50 (house fly brain nAChR; irradiated): 1.22 ± 0.098 µM | IC50 (house fly brain nAChR; nonirradiated): 0.818 ± 0.092 µM

O=[N+]([O-])/N=C1\N(Cc2ccc(Cl)nc2)CCN1Cc1cccc(/N=N/c2cccc(CN3CCN(Cc4ccc(Cl)nc4)/C3=N\[N+](=O)[O-])c2)c1 [AMI-9]
λmax n-π* (cis) [1]: 429 nm | λmax π-π* (trans) [1]: 319 nm | Musca domestica in vivo LD50 ([2]; irradiated): 3.0 ± 0.6 µg/g | Musca domestica in vivo LD50 ([2]; nonirradiated): 5.1 ± 0.8 µg/g | IC50 (house fly brain nAChR; irradiated): 1.34 ± 0.154 µM | IC50 (house fly brain nAChR; nonirradiated): 1.16 ± 0.141 µM

O=[N+]([O-])N=C1N(Cc2ccc(N=Nc3ccc(CN4CCN(Cc5ccc(Cl)nc5)C4=N[N+](=O)[O-])cc3)cc2)CCN1Cc1ccc(Cl)nc1 [AMI-10]
λmax n-π* (cis) [1]: 434 nm | λmax π-π* (trans) [1]: 325 nm | Musca domestica in vivo LD50 ([2]; irradiated): 0.5 µg/g and 0.5 ± 0.08 µg/g | Musca domestica in vivo LD50 ([2]; nonirradiated): 2.8 µg/g and 2.8 ± 0.4 µg/g | photo bleaching or photo-oxidation [3]: No photo bleaching or photo-oxidation could be observed | IC50 (house fly brain nAChR; irradiated): 0.112 ± 0.013 µM | IC50 (house fly brain nAChR; nonirradiated): 0.466 ± 0.055 µM

O=[N+]([O-])NC1=NCCN1Cc1ccc(Cl)nc1 [IMI, imidacloprid]
Musca domestica in vivo LD50 ([2]; irradiated): 0.05 ± 0.01 µg/g | Musca domestica in vivo LD50 ([2]; nonirradiated): 0.05 ± 0.01 µg/g | IC50 (house fly brain nAChR; irradiated): 0.0288 ± 0.004 µM | IC50 (house fly brain nAChR; nonirradiated): 0.0288 ± 0.004 µM

c1ccc(/N=N/c2ccccc2)cc1 [azobenzene]
Musca domestica in vivo LD50 ([2]; irradiated): >10 µg/g | Musca domestica in vivo LD50 ([2]; nonirradiated): >10 µg/g | poisoning sign in house fly ([2]; under the tested concentrations): no significant poisoning sign was detected | IC50 (house fly brain nAChR; irradiated): > 2 µM | IC50 (house fly brain nAChR; nonirradiated): > 2 µM

(E)-1-(3-(((E)-2-(nitromethylene)imidazolidin-1-yl)methyl)phenyl)-2-(3-(((Z)-2-(nitromethylene)imidazolidin-1-yl)methyl)phenyl)diazene [AMI-7]
λmax n-π* (cis) [1]: 432 nm | λmax π-π* (trans) [1]: 321 nm | Musca domestica in vivo LD50 ([2]; irradiated): 5.3 ± 1.0 µg/g | Musca domestica in vivo LD50 ([2]; nonirradiated): 7.9 ± 1.1 µg/g | IC50 (house fly brain nAChR; irradiated): 1.73 ± 0.135 µM | IC50 (house fly brain nAChR; nonirradiated): 1.86 ± 0.151 µM

(Z)-2-(nitromethylene)-1-(2-((E)-phenyldiazenyl)benzyl)imidazolidine [AMI-5]
λmax n-π* (cis) [1]: 436 nm | λmax π-π* (trans) [1]: 320 nm | Musca domestica in vivo LD50 ([2]; irradiated): >10 µg/g | Musca domestica in vivo LD50 ([2]; irradiated, listed as 5): more than 10 μg/g | Musca domestica in vivo LD50 ([2]; nonirradiated): >10 µg/g | Musca domestica in vivo LD50 ([2]; nonirradiated, listed as 5): more than 10 μg/g | IC50 (house fly brain nAChR; irradiated): > 2 µM | IC50 (house fly brain nAChR; nonirradiated): > 2 µM
